Laboratory results taken from the supplement of paper PMC10307832.

Experiments:
Assay in all cases: relative viability (nuclei count vs DMSO), 5 days (fraction); higher = more cells survive
HCC-827 = tested on: HCC-827
Procedure, shortened: (§1)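 Values are medians from duplicate plates. Each reflects relative viability, defined as the nuclei count of treated wells over that of vehicle wells. Lung cancer cell lines in 1536-well plates were pin-tool dosed one day after seeding with one drug alone or with a fixed anchor-drug dose plus five library-drug doses (not always all listed) in √10 steps, then fixed, stained and imaged at 4× after 5 days.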

NCI-H1437 = tested on: NCI-H1437
Procedure, shortened: as §1

SK-LU-1 = tested on: SK-LU-1
Procedure, shortened: as §1

NCI-H1755 = tested on: NCI-H1755
Procedure, shortened: as §1

NCI-H23 = tested on: NCI-H23
Procedure, shortened: as §1

HARA = tested on: HARA
Procedure, shortened: as §1

NCI-H1915 = tested on: NCI-H1915
Procedure, shortened: as §1

NCI-H1792 = tested on: NCI-H1792
Procedure, shortened: as §1

A-427 = tested on: A-427
Procedure, shortened: as §1

HCC-366 = tested on: HCC-366
Procedure, shortened: as §1

NCI-H460 = tested on: NCI-H460
Procedure, shortened: as §1

NCI-H1395 = tested on: NCI-H1395
Procedure, shortened: as §1

NCI-H2009 = tested on: NCI-H2009
Procedure, shortened: as §1

COR-L 105 = tested on: COR-L 105
Procedure, shortened: as §1

EMC-BAC-2 = tested on: EMC-BAC-2
Procedure, shortened: as §1

NCI-H2228 = tested on: NCI-H2228
Procedure, shortened: as §1

LCLC-103H = tested on: LCLC-103H
Procedure, shortened: as §1

CAL-12T = tested on: CAL-12T
Procedure, shortened: as §1

NCI-H522 = tested on: NCI-H522
Procedure, shortened: as §1

SW 1573 = tested on: SW 1573
Procedure, shortened: as §1

HOP-62 = tested on: HOP-62
Procedure, shortened: as §1

SMILES: Nc1ccn([C@@H]2O[C@H](CO)[C@@H](O)[C@@H]2O)c(=O)n1 [Cytarabine] + Nc1nc2[nH]cc(CCc3ccc(C(=O)N[C@@H](CCC(=O)O)C(=O)O)cc3)c2c(=O)[nH]1 [Pemetrexed] (partner 0.2 µM)
- relative viability (HCC-827; first compound 0.005 µM): 0.222
- relative viability (HCC-827; first compound 0.01581 µM): 0.281
- relative viability (HCC-827; first compound 0.05 µM): 0.161
- relative viability (HCC-827; first compound 0.1581 µM): 0.152
- relative viability (HCC-827; first compound 0.5 µM): 0.113
- relative viability (NCI-H1437; first compound 0.005 µM): 0.339
- relative viability (NCI-H1437; first compound 0.01581 µM): 0.344
- relative viability (NCI-H1437; first compound 0.05 µM): 0.335
- relative viability (NCI-H1437; first compound 0.1581 µM): 0.321
- relative viability (NCI-H1437; first compound 0.5 µM): 0.258
- relative viability (SK-LU-1; first compound 0.005 µM): 0.827
- relative viability (SK-LU-1; first compound 0.01581 µM): 0.732
- relative viability (SK-LU-1; first compound 0.05 µM): 0.642
- relative viability (SK-LU-1; first compound 0.1581 µM): 0.377
- relative viability (SK-LU-1; first compound 0.5 µM): 0.331
- relative viability (NCI-H1755; first compound 0.005 µM): 0.472
- relative viability (NCI-H1755; first compound 0.01581 µM): 0.453
- relative viability (NCI-H1755; first compound 0.05 µM): 0.381
- relative viability (NCI-H1755; first compound 0.1581 µM): 0.336
- relative viability (NCI-H1755; first compound 0.5 µM): 0.351
- relative viability (NCI-H23; first compound 0.005 µM): 0.611
- relative viability (NCI-H23; first compound 0.01581 µM): 0.527
- relative viability (NCI-H23; first compound 0.05 µM): 0.445
- relative viability (NCI-H23; first compound 0.1581 µM): 0.172
- relative viability (NCI-H23; first compound 0.5 µM): 0.159
- relative viability (HARA; first compound 0.005 µM): 0.243
- relative viability (HARA; first compound 0.01581 µM): 0.221
- relative viability (HARA; first compound 0.05 µM): 0.217
- relative viability (HARA; first compound 0.1581 µM): 0.171
- relative viability (HARA; first compound 0.5 µM): 0.153
- relative viability (NCI-H1915; first compound 0.005 µM): 0.506
- relative viability (NCI-H1915; first compound 0.01581 µM): 0.563
- relative viability (NCI-H1915; first compound 0.05 µM): 0.54
- relative viability (NCI-H1915; first compound 0.1581 µM): 0.45
- relative viability (NCI-H1915; first compound 0.5 µM): 0.333
- relative viability (NCI-H1792; first compound 0.01581 µM): 0.672
- relative viability (NCI-H1792; first compound 0.05 µM): 0.751
- relative viability (NCI-H1792; first compound 0.1581 µM): 0.182
- relative viability (NCI-H1792; first compound 0.5 µM): 0.115
- relative viability (A-427; first compound 0.005 µM): 0.745
- relative viability (A-427; first compound 0.01581 µM): 0.509
- relative viability (A-427; first compound 0.05 µM): 0.332
- relative viability (A-427; first compound 0.1581 µM): 0.27
- relative viability (A-427; first compound 0.5 µM): 0.253
- relative viability (HCC-366; first compound 0.005 µM): 0.161
- relative viability (HCC-366; first compound 0.01581 µM): 0.217
- relative viability (HCC-366; first compound 0.05 µM): 0.25
- relative viability (HCC-366; first compound 0.1581 µM): 0.0693
- relative viability (HCC-366; first compound 0.5 µM): 0.062
- relative viability (NCI-H460; first compound 0.005 µM): 0.0718
- relative viability (NCI-H460; first compound 0.01581 µM): 0.0671
- relative viability (NCI-H460; first compound 0.05 µM): 0.0853
- relative viability (NCI-H460; first compound 0.1581 µM): 0.0459
- relative viability (NCI-H460; first compound 0.5 µM): 0.037
- relative viability (NCI-H1395; first compound 0.005 µM): 0.798
- relative viability (NCI-H1395; first compound 0.01581 µM): 0.566
- relative viability (NCI-H1395; first compound 0.05 µM): 0.638
- relative viability (NCI-H1395; first compound 0.1581 µM): 0.361
- relative viability (NCI-H1395; first compound 0.5 µM): 0.326
- relative viability (NCI-H2009; first compound 0.005 µM): 0.971
- relative viability (NCI-H2009; first compound 0.01581 µM): 0.99
- relative viability (NCI-H2009; first compound 0.05 µM): 0.996
- relative viability (NCI-H2009; first compound 0.1581 µM): 0.827
- relative viability (NCI-H2009; first compound 0.5 µM): 0.258
- relative viability (COR-L 105; first compound 0.005 µM): 0.961
- relative viability (COR-L 105; first compound 0.01581 µM): 1.19
- relative viability (COR-L 105; first compound 0.05 µM): 0.678
- relative viability (COR-L 105; first compound 0.1581 µM): 0.579
- relative viability (COR-L 105; first compound 0.5 µM): 0.383
- relative viability (EMC-BAC-2; first compound 0.005 µM): 0.476
- relative viability (EMC-BAC-2; first compound 0.01581 µM): 0.446
- relative viability (EMC-BAC-2; first compound 0.05 µM): 0.31
- relative viability (EMC-BAC-2; first compound 0.1581 µM): 0.244
- relative viability (EMC-BAC-2; first compound 0.5 µM): 0.247
- relative viability (NCI-H2228; first compound 0.005 µM): 0.32
- relative viability (NCI-H2228; first compound 0.01581 µM): 0.275
- relative viability (NCI-H2228; first compound 0.05 µM): 0.134
- relative viability (NCI-H2228; first compound 0.1581 µM): 0.0993
- relative viability (NCI-H2228; first compound 0.5 µM): 0.133
- relative viability (LCLC-103H; first compound 0.005 µM): 0.458
- relative viability (LCLC-103H; first compound 0.01581 µM): 0.467
- relative viability (LCLC-103H; first compound 0.05 µM): 0.497
- relative viability (LCLC-103H; first compound 0.1581 µM): 0.422
- relative viability (LCLC-103H; first compound 0.5 µM): 0.456
- relative viability (CAL-12T; first compound 0.005 µM): 0.928
- relative viability (CAL-12T; first compound 0.01581 µM): 1.11
- relative viability (CAL-12T; first compound 0.05 µM): 0.984
- relative viability (CAL-12T; first compound 0.1581 µM): 0.543
- relative viability (CAL-12T; first compound 0.5 µM): 0.249
- relative viability (NCI-H522; first compound 0.005 µM): 0.942
- relative viability (NCI-H522; first compound 0.01581 µM): 0.846
- relative viability (NCI-H522; first compound 0.05 µM): 0.631
- relative viability (NCI-H522; first compound 0.1581 µM): 0.578
- relative viability (NCI-H522; first compound 0.5 µM): 0.455
- relative viability (SW 1573; first compound 0.005 µM): 0.675
- relative viability (SW 1573; first compound 0.01581 µM): 0.576
- relative viability (SW 1573; first compound 0.05 µM): 0.386
- relative viability (SW 1573; first compound 0.1581 µM): 0.107
- relative viability (SW 1573; first compound 0.5 µM): 0.0809
- relative viability (HOP-62; first compound 0.005 µM): 0.388
- relative viability (HOP-62; first compound 0.01581 µM): 0.411
- relative viability (HOP-62; first compound 0.05 µM): 0.309
- relative viability (HOP-62; first compound 0.1581 µM): 0.113
- relative viability (HOP-62; first compound 0.5 µM): 0.072
